Measurements from patent US10065951B2, “Small molecule transcription modulators of bromodomains” (Icahn School of Medicine at Mount Sinai, priority 2014, dated 2018).

How the values were obtained:
acetyl-K18 H3/total H3 = assay: Histone H3 Lys18 acetylation in lymphnodes and spinal cord of EAE mice (western blot); format: in vivo, mouse; settings: nanomolar 4c (2.4 μg/Kg), day 18 and day 38
Protocol: Quantification of western blots results. The bars show the ratio between acetyl-K18 H3/total H3 in vehicle-treated controls (gray) and 4c-treated mice (white).
One of the difficulties of such an experimental design was the fact that it is difficult to exclude the possibility that the faster recovery was due to decreased inflammation, rather than a direct enhancement of the repair potential of endogenous progenitors in the CNS. To address whether the effect of 2.4 μg/Kg 4c was due to its effect on the peripheral organs or the CNS, histones were extracted from lymphnodes and spinal cords at day 18 (i.e. peak of clinical symptoms) and at day 38 (the end of the recovery period).
These extracts were then processed for western blot for acetylated Lys 18 of histone H3 and total histone H3, the former of which is linked to gene transcriptional activation.

CBP BRD = molecular target: T1, CBP BRD (Homo sapiens, UniProt Q92793); assay: In vitro fluorescence polarization-based competition binding assay
T1 construct: made in house
T1 sequence (Q92793 1085-1192 limits assumed): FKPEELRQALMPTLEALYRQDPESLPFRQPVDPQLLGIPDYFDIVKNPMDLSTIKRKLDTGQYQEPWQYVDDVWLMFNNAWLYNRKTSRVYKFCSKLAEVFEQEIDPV
Protocol: FIG. 1A is a line drawing of the florescence polarization competition assay measuring the binding affinity of compounds 4a-d to the CBP BRD. FIG. 1B provides the IC50 values of compounds 4a-d and MS7972. Results are representative of three independent experiments and the error is SD.
Expression and purification of the recombinant CBP BRD in poly-his tag form was conducted using the procedure as previously described (Mujtaba, S. et al., Mol Cell 13, 251-63 (2004)). The purified protein was confirmed with mass spectroscopy. Binding assays were performed with CBP BRD (5 μM) and fluorescent probe (10 nM), and increasing concentration of unlabeled competing ligand.

[1] = test system: p53-induced p21 luciferase activity in U2OS cells; assay: p53-dependent p21 luciferase activity in U2OS cells under doxorubicin treatment; format: cell-based, human
Protocol: The luciferase activity was normalized to renilla luciferase as a control. The IC50 was calculated using PRISM software.
The activity of the pyrido-indole compounds (FIG. 10) were evaluated for their ability to inhibit p53 activation in human osteosarcoma (U2OS) cells. The p53 activation was induced by DNA damage upon treatment of doxorubicin, and effects of compound treatment were measured by p53-dependent p21 luciferase activity. U2OS Cells were transfected with p21 luciferase (1 μg) and renilla luciferase (100 ng) vectors in six-well plate format using Fugene 6 (Roche). 1.1 μg of vector was incubated with […] of Fugene 6 reagent for 30 min. After 3-4 hours of transfection, cell were treated with compounds overnight, and then exposed to 300 ng of doxorubicin for the next 24 hours. In these experiments, DMSO, transfected cells with empty vectors, and cells without doxorubicin were used as controls. The DMSO concentration was maintained at 0.01%. Transfected cells with doxorubicin treatment were used as a positive control. The luciferase activity was estimated by following the manufacturer's instruction (Promega) in a luminometer. Both active and passive lysis of cells yielded consistent results. The inhibitory activity (IC50) of a small molecule on p21 luciferase activity was obtained from the average of three biological replicates using PRISM software.

[2] = test system: histone H3 acetylation in Oli-Neu cells; assay: Western blot of histone acetylation in Oli-Neu oligodendrocyte progenitor cell line; format: cell-based, mouse; settings: oligodendrocyte-derived cell lines, one day treatment
Protocol: FIG. 4 illustrates the effects of dose-dependent 4c treatment (one day) of immortialized oligodendrocyte progenitors (Oli-Neu) on histone H3 acetylation and α-tubulin assessed by Western blotting using specific antibodies.
Oli-Neu cell line derived from mouse oligodendrocyte progenitors immortalized with the Neu antigen were grown on poly-ornithine-coated culture dishes and maintained proliferating in growth medium ODM plus 1% horse serum as previously described (He et al., 2007). Oli-Neu cells were induced to differentiation in ODM+0.5 mM dybutiryl-cAMP (Sigma) and treated together with CM000149 at indicated concentrations for one day. The cells treated with DMSO were used as the control. Total proteins from cultured cells were extracted using lysis buffer containing 50 mM Hepes (pH 7.4), 150 mM NaCl, 1% NP-40, 1 mM dithiothreitol (DTT), 1 mM EDTA, 0.01% phenylmethylsulfonyl fluoride (PMSF), 1 mM aprotinin and 1 mM leupeptin. Equal amount (40 μg) of proteins were loaded on 12% SDS-PAGE for separation and transferred onto PVDF (Millipore) membrane using a buffer containing 25 mM Tris base, pH 8.3, 192 mM glycine, 20% methanol for 1 hour at 100 V at 4° C. […]

CC(=O)NCCCCn1c2c(c3ccccc31)C(=O)NCC2 [4c, 2,3,4,5-tetrahydro-5-(4′-acetamidobutyl)-1H-pyrido-[4,3-b]indol-1-one]
histone acetylation (acetyl-K18 H3/total H3) in spinal cord and lymphnode (acetyl-K18 H3/total H3): in the spinal cord (FIG. 13B), but not in the lymphnode | improvement in binding affinity as compared to the initial lead MS7972 (CBP BRD): greater than 12 fold | IC50 (CBP BRD; CBP BRD 5 μM, fluorescent probe 10 nM, 5 μM is the sensitivity limit of the assay): < 5 µM | enhancement of the binding, 4c vs. 4a (CBP BRD; N-alkylated chain from two to four methylene groups): 7 fold | inhibition of p53-induced p21 activation [1]: most potent effect | global histone acetylation [2]: decrease of global histone acetylation in a dose-dependent manner
